Here are results for two compounds from patent publication US9796665B2 (priority 2013, dated 2017).

Experiment [1] concerns the target T1, cannabinoid receptor 1 (CB1R) (Homo sapiens, UniProt P21554).
T1 construct: host or cells: CHO cells over-expressing CB1R
In words: cAMP production suppression in CHO cells over-expressing CB1R (HTRF cAMP assay, forskolin-induced). In kind it is cell-based. The note with it: for concentration of cAMP: 0-50 μM compound, 10 μM forskolin, FIG. 1; for Modulation: Target CB1R. The text has this:
cAMP production suppression efficacy by agonistic action of the synthesized materials was confirmed using CHO cells in which cannabinoid receptor 1 (CB1R) was over-expressed.
The CHO cells in which the cannabinoid receptor 1 (CB1R) was over-expressed were purchased from Chantest, and cultured in an F-12 medium (Gibco) containing 10% fetal bovine serum (FBS, Gibco). In order to conform an agonistic activity of a ceramide derivative compounds according to the present invention on the cannabinoid receptor, the cells were plated in a 96-well dish, cultured for 24 hours, and then, treated at concentrations of 0, 0.781, 1.562, 3.125, 6.25, 12.5, 25, and 50 μM (0.1% DMSO in PBS). The cells were treated with 10 μM Forskolin (Sigma), thereby inducing cAMP production by adenylyl cyclase in the cells. A concentration of cAMP in the cells was measured using a HTRF cAMP assay kit purchased from Cisbio. After dissolving the cells with lysis buffer in the kit according to the manufacturer's manual, anti-cAMP cryptate conjugate and cAMP-d2 in the kit were treated at room temperature for 2 hours. Thereafter, fluorescence was measured at 665 nm and 620 nm and compensated by a ratio of 665 nm/620 nm, and then, the concentration of cAMP in the cells was measured using a standard curve. Since activity of adenylyl cyclase was suppressed when the cannabinoid receptor 1 (CB1R) was activated, the cannabinoid receptor agonist according to the present invention suppresses production of cAMP in the cells. […] As illustrated in the following Table 1, it may be confirmed that the novel cannabinoid receptor agonists according to the present invention activate the cannabinoid receptor 1 (CB1R) when EC50 was 24 to 26 μM.

For experiment [2], the system named is RBL-2H3 cells (rat basophilic leukemia cells). Description: Degranulation of mast cells activated by ionomycin. In kind it is cell-based. The note with it: FIG. 2(A) and (B). Here is the method: In order to confirm whether or not the ceramide derivative compound according to the present invention suppresses activation of the mast cells, RBL-2H3 cells (rat basophilic leukemia cells) corresponding to one kind of mast cells were cultured in a DMEM medium containing 10% FBS in a 24-well plate, and then treated with the compound for 16 hours. In order to induce degranulation of the mast cells, the cells were treated with 2 μM ionomycin (Sigma), and after 30 minutes, concentrations of β-hexosaminidase and histamine released to the medium were measured. In detail, at the time of measuring the concentration of β-hexosaminidase, 50 μl of the medium was reacted together with 50 μl of p-nitrophenyl-nacetyl-β-d-glucosaminidine, (p-NAG, Sigma) at 37° C. for 2 hours, and then, the reaction was terminated by adding 200 μl of 0.2 M glycine (pH 10.6, Sigma). Absorbance at a wavelength of 405 nm was measured using a spectrometer. The concentration of histamine was measured using a HTRF histamine assay kit (Cisbio). 10 μl of a medium supernatant of the cells was treated with anti-histamine cryptate conjugate and histamine-d2 according to the manufacturer's manual at room temperature for 2 hours. Thereafter, fluorescence was measured at 665 nm and 620 nm and compensated by a ratio of 665 nm/620 nm, and then, the concentration of histamine in the cells was measured using a standard curve. […]

The test system is the same in experiment [3]. In words: Degranulation of mast cells activated by IgE antibody and antigen. The note with it: FIG. 3(A) and (B). In kind it is cell-based. As to the method:
In order to confirm whether or not the ceramide derivative compound according to the present invention suppresses activities of the mast cells, RBL-2H3 cells (rat basophilic leukemia cells) corresponding to one kind of mast cells were cultured in a DMEM medium containing 10% FBS in a 24-well plate, and then treated with the compound for 16 hours. In order to induce degranulation of the mast cells, the cells were treated with IgE antibody (0.2 μg/ml) and NP-BSA (0.1 μg/ml) for 1 hour, and then, concentrations of β-hexosaminidase and histamine released to the medium were measured. In detail, at the time of measuring the concentration of β-hexosaminidase, 50 μl of the medium was reacted together with 50 μl of p-nitrophenyl-nacetyl-β-d-glucosaminidine, (p-NAG, Sigma) at 37° C. for 2 hours, and then, the reaction was terminated by adding 200 μl of 0.2 M glycine (pH 10.6, Sigma). Absorbance at a wavelength of 405 nm was measured using a spectrometer. The concentration of histamine was measured using a HTRF histamine assay kit (Cisbio). […] Thereafter, fluorescence was measured at 665 nm and 620 nm and compensated by a ratio of 665 nm/620 nm, and then, the concentration of histamine in the cells was measured using a standard curve.

Experiment [4] has the same test system. In words: Histamine release of mast cells activated by PAR-2 agonist SLIGRL. The note with it: FIG. 4. Type of experiment: cell-based. As to the method:
The PAR-2, which is a receptor activated by protease (tryptase, chymase, and the like) present outside cells, induces degranulation on surfaces of the mast cells. In order to confirm whether or not the ceramide derivative compound according to the present invention suppresses activities of the mast cells by PAR-2, RBL-2H3 cells (rat basophilic leukemia cells) corresponding to one kind of mast cells were cultured in a DMEM medium containing 10% FBS in a 24-well plate, and then treated with the compound for 2 hours. Thereafter, in order to induce degranulation of the mast cells, the cells were treated with 10 μM SLIGRL peptide, which is a PAR-2 agonist, for 1 hour. The concentration of histamine released outside the cells was measured using a HTRF histamine assay kit (Cisbio). 10 μl of a medium supernatant of the cells was treated with anti-histamine cryptate conjugate and histamine-d2 according to the manufacturer's manual at room temperature for 2 hours. Thereafter, fluorescence was measured at 665 nm and 620 nm and compensated by a ratio of 665 nm/620 nm, and then, the concentration of histamine in the cells was measured using a standard curve. […] Therefore, the novel ceramide derivative according to the present invention, which is the novel cannabinoid receptor agonist, is a compound effectively suppressing the activities of the mast cells.

Experiment [5] has as its system oxazolone-induced atopic dermatitis animal model. Description: Oxazolone-induced atopic dermatitis animal model, skin thickness. The settings on record: FIG. 7(A) and (B). In kind it is in vivo, hairless mice. Here is the method:
(§1) In order to evaluate efficacy of the novel compound according to the present invention in an animal model, first, hairless mice were treated with oxazolone (Sigma), thereby establishing atopic dermatitis-like animal models. More specifically, on day 1, the mice were sensitized with 1% oxazolone in acetone on the back, and after 1 week, the mice were treated with 0.1% oxazolone in acetone on the back every other day for 2 weeks, thereby inducing atopic dermatitis-like symptoms. Thereafter, the compound (1%) according to the present invention was dissolved in a solution in which polyethylene glycol (PEG, Sigma) and ethanol were mixed with each other at a ratio of 7:3, and the mice were treated with the obtained compound solution on the back once in the morning and evening for 10 days. […] In addition, a skin thickness of each of the animal models was measured and illustrated by a graph. […] Therefore, the compound according to the present invention may be effective to treat atopic dermatitis.

For experiment [6] the test system is unchanged. In words: IgE and histamine in blood in atopic dermatitis animal model. Type of experiment: in vivo, hairless mice. The settings on record: for concentration of IgE antibody in the blood: FIG. 8(A); for concentration of histamine in the blood: FIG. 8(B). Here is the method:
as §1
In order to evaluate efficacy of the novel compound according to the present invention in an atopic dermatitis animal model, after treating an oxazolone (Sigma)-induced atopic dermatitis animal model with the compound, concentrations of IgE antibody and histamine present in the blood were measured. The IgE and histamine in the blood are known as markers of atopic dermatitis and inflammatory dermatitis such as contact dermatitis, and as the disease aggregates, the concentrations thereof in the blood further increases. The increased IgE activated mast cells, and allowed the mast cells to release a large amount of inflammatory cytokines such as histamine.

The test system is the same in experiment [7]. In words: Mast cells in skin of atopic dermatitis animal model (toluidine blue staining). In kind it is in vivo, hairless mice. The note with it: FIG. 9. As to the method: In order to evaluate whether or not the novel compound according to the present invention suppresses the activities of mast cells in an atopic dermatitis animal model, first, hairless mice were treated with oxazolone (Sigma), thereby establishing an atopic dermatitis animal model. More specifically, on day 1, mice were sensitized with 1% oxazolone in acetone on the back, and after 1 week, the mice were treated with 0.1% oxazolone in acetone on the back every other day for 2 weeks, thereby inducing atopic dermatitis on the back skin of the mice. Thereafter, the compound (1%) according to the present invention was dissolved in a solution in which polyethylene glycol (PEG, Sigma) and ethanol were mixed with each other at a ratio of 7:3, and the mice were treated with the obtained compound solution on the back once in the morning and evening for 10 days. Then, skin biopsy was taken and stained with toluidine blue solution (Sigma), thereby confirming presence of mast cells. […] The mast cells in the skin as described above release various kinds of inflammatory cytokines, thereby aggregating atopic dermatitis. […] The number of mast cells present on the skin in each of the groups was statistically analyzed and illustrated by a graph. […]

T1 sequence (P21554 whole entry): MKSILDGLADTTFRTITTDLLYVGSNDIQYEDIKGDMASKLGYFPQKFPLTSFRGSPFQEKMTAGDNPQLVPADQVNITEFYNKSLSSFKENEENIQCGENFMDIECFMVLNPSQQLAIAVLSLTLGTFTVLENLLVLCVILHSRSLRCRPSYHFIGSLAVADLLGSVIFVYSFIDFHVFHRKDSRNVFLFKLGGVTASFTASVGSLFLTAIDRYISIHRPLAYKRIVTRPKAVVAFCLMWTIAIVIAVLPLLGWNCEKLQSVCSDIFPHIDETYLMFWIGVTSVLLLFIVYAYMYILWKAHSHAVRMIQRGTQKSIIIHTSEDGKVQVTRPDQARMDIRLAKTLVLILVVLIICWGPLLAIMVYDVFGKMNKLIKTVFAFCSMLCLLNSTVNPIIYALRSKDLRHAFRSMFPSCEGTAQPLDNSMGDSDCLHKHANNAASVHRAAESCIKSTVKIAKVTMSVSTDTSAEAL

For `CCCCCCCC/C=C\CCCCCCCC(=O)C(CCCCCC/C=C\CCCCCCCC)C(=O)NCCO` (stereo not drawn) [CBS004, (11Z)-2-((Z)-hexadec-7-enyl)-N-(2-hydroxyethyl)-3-oxoicos-11-enamide], in experiment [1], the “concentration of cAMP” value is listed as “decreased dependently on the concentration of the compound” and the Modulation result is “Agonist”. In addition, in experiment [2], the “activation of mast cells by ionomycin” value was “suppression effects”. Moreover, the “activation of the mast cells by IgE antibody and antigen” value in experiment [3] is listed as “suppression effects”. Besides, the “activation of mast cells by protease activated receptor 2 (PAR-2)” value in experiment [4] is on record as “suppression effects”. The skin damage entry in experiment [5] is recorded as “repair effects”. Moreover, in experiment [6], the “concentration of IgE antibody in the blood” value is “decrease effects” and the “concentration of histamine in the blood” value is listed as “decrease effects”. Moreover, in experiment [7], the “invasion of mast cells in a lesion site” value is reported as “suppressed”.
In the case of `CCCCCCCC/C=C\CCCCCCCC(=O)C(CCCCCC/C=C\CCCCCCCC)C(=O)NC(CO)CO` (stereo not drawn) [CBS007, (11Z)-2-((Z)-hexadec-7-enyl)-N-(1,3-dihydroxypropan-2-yl)-3-oxoicos-11-enamide], in experiment [1], the “concentration of cAMP” value is on record as “decreased dependently on the concentration of the compound” and the Modulation entry was “Agonist”. Moreover, in experiment [2], the “activation of mast cells by ionomycin” value was “suppression effects”. The “activation of the mast cells by IgE antibody and antigen” value in experiment [3] was “suppression effects”. In addition, the “activation of mast cells by protease activated receptor 2 (PAR-2)” value in experiment [4] was “suppression effects”. Further, the skin damage entry in experiment [5] is reported as “repair effects”. Besides, in experiment [6], the “concentration of IgE antibody in the blood” value was “decrease effects” and the “concentration of histamine in the blood” value is given as “decrease effects”. Besides, the “invasion of mast cells in a lesion site” value in experiment [7] is given as “suppressed”.
